The text below walks through data of ChEMBL document CHEMBL4400506, “8-Hydroxy-2-(1H-1,2,3-triazol-1-yl)-1,4-naphtoquinone derivatives inhibited P2X7 Receptor-Induced dye uptake into murine Macrophages” (Bioorg Med Chem, 2019).

Activity calls are given as the source filed them. No cut-off for these calls is given here.

Data set [1] has as its target T1, P2X purinoceptor 7 (Mus musculus) (UniProt Q9Z1M0).
T1 sequence (whole entry): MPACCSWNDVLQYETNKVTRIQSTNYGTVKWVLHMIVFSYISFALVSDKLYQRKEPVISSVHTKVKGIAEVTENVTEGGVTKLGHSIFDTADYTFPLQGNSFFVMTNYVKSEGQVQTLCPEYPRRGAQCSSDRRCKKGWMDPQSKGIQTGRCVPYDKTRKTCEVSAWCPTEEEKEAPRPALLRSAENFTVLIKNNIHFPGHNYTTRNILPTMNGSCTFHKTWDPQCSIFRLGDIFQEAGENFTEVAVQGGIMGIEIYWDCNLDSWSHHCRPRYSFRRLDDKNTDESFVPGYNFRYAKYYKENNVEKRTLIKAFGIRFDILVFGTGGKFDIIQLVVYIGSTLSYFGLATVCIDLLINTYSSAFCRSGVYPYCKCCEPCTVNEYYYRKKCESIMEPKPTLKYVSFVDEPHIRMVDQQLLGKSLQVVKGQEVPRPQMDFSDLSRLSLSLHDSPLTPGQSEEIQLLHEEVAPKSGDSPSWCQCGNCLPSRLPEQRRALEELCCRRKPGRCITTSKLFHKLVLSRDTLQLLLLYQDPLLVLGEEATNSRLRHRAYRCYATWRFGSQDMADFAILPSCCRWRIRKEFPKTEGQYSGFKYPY
Description: Antagonist activity at P2X7R in Swiss Webster mouse peritoneal macrophages assessed as inhibition of propidium iodide uptake preincubated for 10 mins propidium iodide addition measured after 5 mins by fluorescence microscopic analysis.

For the next data set, the target named is T2, P2X purinoceptor 7 (Homo sapiens, UniProt Q99572).
T2 sequence (Q99572 whole entry): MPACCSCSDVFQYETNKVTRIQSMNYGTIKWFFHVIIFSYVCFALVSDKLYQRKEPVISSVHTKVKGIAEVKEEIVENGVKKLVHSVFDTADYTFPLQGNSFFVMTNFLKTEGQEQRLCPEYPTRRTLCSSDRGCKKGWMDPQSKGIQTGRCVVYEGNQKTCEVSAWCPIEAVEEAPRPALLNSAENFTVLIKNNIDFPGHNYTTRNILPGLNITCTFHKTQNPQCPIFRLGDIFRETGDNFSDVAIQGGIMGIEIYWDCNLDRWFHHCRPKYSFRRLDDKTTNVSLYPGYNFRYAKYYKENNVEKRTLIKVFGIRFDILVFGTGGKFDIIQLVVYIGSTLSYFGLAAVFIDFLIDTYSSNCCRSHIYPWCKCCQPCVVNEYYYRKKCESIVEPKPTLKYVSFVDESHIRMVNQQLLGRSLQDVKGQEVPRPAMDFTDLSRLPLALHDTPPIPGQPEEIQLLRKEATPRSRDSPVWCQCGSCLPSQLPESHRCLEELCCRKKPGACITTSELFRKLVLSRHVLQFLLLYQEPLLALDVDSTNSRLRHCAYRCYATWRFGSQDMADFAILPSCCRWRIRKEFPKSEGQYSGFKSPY
Nature of the data set: Antagonist activity at human P2X7R expressed in HEK293 cells assessed as inhibition of ATP-induced […] uptake preincubated for 5 mins followed by ATP induction and measured after 25 mins by fluorescence assay. The format is cell-based.

For data set [2], the target named is T1, P2X purinoceptor 7 (Mus musculus). Description: Antagonist activity at P2X7R in Swiss Webster mouse peritoneal macrophages assessed as inhibition of ATP-induced propidium iodide uptake preincubated for 10 mins followed by ATP induction for 25 mins and subsequent propidium iodide addition for last 5 mins by fluorescence microscopic analysis.
The subject of a further data set is Peritoneal macrophage. Nature of the data set: Cytotoxicity against Swiss Webster mouse peritoneal macrophages assessed as plasma membrane disruption at 100 uM measured after 24 hrs by dextran rhodamine dye based fluorescence assay. The format is cell-based.
Data set [3] in a line: Intrinsic clearance in mouse liver microsomes assessed per mg protein at 1 uM measured in presence of NADPH. The format is ADME, Microsome. To be noted: read-out: CLH. For orientation: Liver microsomes are a subcellular fraction often used to study metabolism.
A short description of data set [4]: Intrinsic clearance in human liver microsomes assessed per mg protein at 1 uM measured in presence of NADPH. The format is ADME, Microsome. To be noted: read-out: CLH.
Data set [5] in a line: Apparent permeability across apical to basolateral side in human Caco2 cells at 100 uM measured after 60 mins by lucifer yellow staining based fluorescence assay. The format is ADME, cell-based. To be noted: Caco-2. (In general: Caco-2 monolayers are a common model of the intestinal barrier.)
Data set [6] can be described thus: Octanol-PBS distribution co-efficient, log D of the compound at 25 mM at pH 7.4 after 2 hrs by shake flask method. The format is physicochemical.

On to `COc1ccc(CC(=O)NC(N/C(=N/C#N)Nc2cccc3ncccc23)C(C)(C)C)cc1OC` (stereo unspecified), for which the inhibition result in data set [1] was “inactive”. Further, the IC50 (in general, the concentration at which inhibition is half-maximal) on P2X purinoceptor 7 was 750 nM. Moreover, the inhibition result in data set [2] was “Active”. Moreover, in the data set with Peritoneal macrophage, the Activity entry is “Non-Toxic”.

For the compound `CCCCc1cn(C2=CC(=O)c3cccc(O)c3C2=O)nn1`, the microsomal CLint at 1 µM in data set [3] was 40.6 µL/min/mg; in data set [4] it was 46.1 µL/min/mg. The inhibition entry in data set [1] was “inactive”. The Papp A→B – broadly, the apparent permeability from the apical to the basolateral side of a cell layer – at 1 h, 100 µM in data set [5] stood at 71.8 ×10⁻⁶ cm/s. In addition, the IC50 on P2X purinoceptor 7 was determined as 230 nM. In data set [6], the logD (as a rule, lipophilicity at a set pH, counting ionised and neutral species) at 2 h, 25000 µM was -1.24. For the same compound, the inhibition result in data set [2] was “Active”. In the data set on Peritoneal macrophage, the Activity entry is given as “Non-Toxic”.

For the compound `O=C1C=C(n2cc(-c3ccccc3)nn2)C(=O)c2c(O)cccc21`, the inhibition result in data set [1] and in data set [2] was “inactive” throughout. The Activity result in the data set with Peritoneal macrophage is given as “Toxic”.

In the case of `CCOc1ccc(Nc2ccc(/C(=C3C=C/C(=[N+](/CC)Cc4cccc(S(=O)(=O)[O-])c4)C=C/3C)c3ccc(N(CC)Cc4cccc(S(=O)(=O)[O-])c4)cc3C)cc2)cc1.[Na+]` [BRILLIANT BLUE G], the inhibition entry in data set [1] is “inactive”. In addition, at P2X purinoceptor 7, the IC50 stood at 1370 nM. For the same compound, in data set [2], the inhibition entry was “Active”. For the same compound, the Activity entry in the data set on Peritoneal macrophage is “Non-Toxic”.

Consider `CC(C)CC(C)(O)c1cn(C2=CC(=O)c3cccc(O)c3C2=O)nn1` (stereo unspecified), for which the inhibition result in data set [1] and in data set [2] was “inactive” each time. Further, in the data set with Peritoneal macrophage, the Activity result is given as “Non-Toxic”.

For `CCCc1cn(C2=CC(=O)c3cccc(O)c3C2=O)nn1`, the inhibition result in data set [1] and in data set [2] was “inactive” in each case. Also, the Activity entry in the data set with Peritoneal macrophage is on record as “Toxic”.

Consider `O=C1C=C(n2cc(CCCCl)nn2)C(=O)c2c(O)cccc21`, for which the microsomal CLint at 1 µM in data set [3] was determined as 3.1 µL/min/mg; in data set [4], 1.2 µL/min/mg. Also, the inhibition entry in data set [1] is “inactive”. The apical-to-basolateral permeability (Papp A→B) at 1 h, 100 µM in data set [5] stood at 41.6 ×10⁻⁶ cm/s. For the same compound, the half-maximal inhibitory concentration (IC50) at P2X purinoceptor 7 stood at 103 nM. Moreover, the logD at 2 h, 25000 µM in data set [6] was -0.42. In data set [2], the inhibition result was “Active”. In addition, the Activity entry in the data set on Peritoneal macrophage is recorded as “Non-Toxic”.

Consider `CCC(C)(O)c1cn(C2=CC(=O)c3cccc(O)c3C2=O)nn1` (stereo unspecified), for which the inhibition result in data set [1] and in data set [2] was “inactive” throughout. In the data set on Peritoneal macrophage, the Activity entry is “Non-Toxic”.
